Drawing on patent US10647719B2, “Bicyclic compounds as dual ATX/CA inhibitors” (Hoffmann-La Roche Inc., priority 2015, dated 2020), this text covers IC50 for 9 compounds.

The target of one test is human ATX (Homo sapiens (Human), UniProt Q13822). Kind of test: Human ATX enzyme inhibition assay (fluorescence quenching, MR121 substrate). It is filed as biochemical. Here is the method: Human ATX Enzyme Inhibition Assay
ATX inhibition was measured by a fluorescence quenching assay using a specifically labeled substrate analogue (MR121 substrate). To obtain this MR121 substrate, BOC and TBS protected 6-amino-hexanoic acid (R)-3-({2-[3-(2-{2-[2-(2-amino-ethoxy)-ethoxy]-ethoxy}-ethoxy)-propionylamino]-ethoxy}-hydroxy-phosphoryloxy)-2-hydroxy-propyl ester (Ferguson et al., Org Lett 2006, 8 (10), 2023) was labeled with MR121 fluorophore (CAS 185308-24-1, 1-(3-carboxypropyl)-11-ethyl-1,2,3,4,8,9,10,11-octahydro-dipyrido[3,2-b:2′,3′-i]phenoxazin-13-ium) on the free amine of the ethanolamine side and then, after deprotection, subsequently with tryptophan on the side of the aminohexanoic acid.
(§1) Assay working solutions were made as follows:
Assay buffer (50 mM Tris-HCl, 140 mM NaCl, 5 mM KCl, 1 mM CaCl2, 1 mM MgCl2, 0.01% Triton-X-100, pH 8.0;
ATX solution: ATX (human His-tagged) stock solution (1.08 mg/mL in 20 mM bicine, pH 8.5, 0.15 M NaCl, 10% glycerol, 0.3% CHAPS, 0.02% NaN3), diluted to 1.4-2.5× final concentration in assay buffer;
MR121 substrate solution: MR121 substrate stock solution (800 μM MR121 substrate in DMSO), diluted to 2-5× final concentration in assay buffer.
Test compounds (10 mM stock in DMSO, 8 μL) were obtained in 384 well sample plates (Corning Costar #3655) and diluted with 8 μL DMSO. Row-wise serial dilutions were made by transferring 8 μL cpd solution to the next row up to row O. The compound and control solutions were mixed five times and 2 μL were transferred to 384 well assay plates (Corning Costar #3702). Then, 15 μL of 41.7 nM ATX solution was added (30 nM final concentration), mixed five times and then incubated for 15 minutes at 30° C. 10 μL of MR121 substrate solution was added (1 μM final concentration), mixed 30 times and then incubated for 15 minutes at 30° C.

The target of test [1] is Human carbonic anhydrase II (hCA-II) (Homo sapiens (Human), UniProt P00918). Kind of test: Human carbonic anhydrase-II inhibition assay (absorbance, 4-nitrophenyl acetate substrate). It is filed as biochemical. Particulars: hCA II 8 nM, 4-NPA 2.5 mM, absorbance 340 nm, room temperature 1 hour; read-out: CA-II IC50. Here is the method:
Human Carbonic Anhydrase-II Inhibition Assay
Human carbonic anhydrase II (hCA-II) inhibition was measured by an absorbance method using 4-nitrophenyl acetate (4-NPA) as its substrate. 4-NPA can be catalyzed by active hCA II via a zinc-hydroxide mechanism. The nitrophenolate in the products can be ionized to generate a bright yellow anion with high absorbance at 348 to 400 nm, as reported in the literature (Armstrong et al., J. Biol. Chem. 1966, 241, 5137-5149). OD340 nm was chosen for detecting hCA II substrate conversion.
as §1
Assay buffer: 50 mM MOPS, 33 mM Na2SO4, 1 mM EDTA, 0.5 mg/ml BSA, pH 7.5;
Enzyme solution: hCA-II (human, full length) stock solution (1.0 mg/mL in 20 mM HEPES, 50 mM NaCl, pH 7.4), diluted to 2133× final concentration in assay buffer;
4-NPA substrate solution: 4-NPA substrate stock solution (250 mM in DMSO, stored at −20° C.), diluted to 50× final concentration in deionized water.
Test compounds (10 mM stock in DMSO, 100 μL) were obtained in […] sample plates (Corning Costar #3655) and diluted to 0.5 mM. Column-wise serial dilutions were made by transferring 20 μL compound solutions to the next column, from column 3 up to 22. After this, 1.2 μL were transferred to 384 well assay plates (Corning Costar #3701). Then 30 μL of 16 nM hCA II solution was added (8 nM final concentration), mixed five times. 30 μL of 4-NPA substrate solution was added (2.5 mM final concentration), mixed five times. Absorbance at 340 nm was then measured immediately as time zero. The assay plates were incubated at room temperature for 1 hour and then measured as time 1 hour (Perkin Elmer EnVision 2103; Filter: Photometric 340; Light intensity 60%; Number of flashes: 10). IC50 values and Ki values were calculated from these readouts.

The mark [2] stands for this setting: human His-tagged ATX 30 nM, MR121 substrate 1 μM, 30° C., read-out: ATX IC50.

Like-named read-outs stand apart in the source and are kept apart here.

Broadly, the IC50 is the concentration that gives 50% inhibition.

In the case of `CC(C)(C)C(=O)Nc1cc(C(F)(F)F)cnc1COC(=O)N1CC2=C(C1)CN(C(=O)c1ccc(S(N)(=O)=O)cc1)C2` [Example 1.00, [3-(2,2-Dimethylpropanoylamino)-5-(trifluoromethyl)pyridin-2-yl]methyl 2-(4-sulfamoylbenzoyl)-1,3,4,6-tetrahydropyrrolo[3,4-c]pyrrole-5-carboxylate], the IC50 on human ATX (setting [2]) is 6 nM; in test [1], 14 nM.

As to `CC(C)(C)C(=O)Nc1cc(C(F)(F)F)cnc1COC(=O)N1CC2=C(C1)CN(C(=O)c1cc(F)c(S(N)(=O)=O)cc1F)C2` [Example 1.01, [3-(2,2-dimethylpropanoylamino)-5-(trifluoromethyl)pyridin-2-yl]methyl 2-(2,5-difluoro-4-sulfamoylbenzoyl)-1,3,4,6-tetrahydropyrrolo[3,4-c]pyrrole-5-carboxylate], the IC50 on human ATX (setting [2]) amounted to 10 nM; in test [1], 7 nM.

Take `CC(C)(C)C(=O)Nc1cc(C(F)(F)F)cnc1COC(=O)N1CC2=C(C1)CN(C(=O)c1ccc(S(N)(=O)=O)c(Cl)c1)C2` [Example 1.02, [3-(2,2-dimethylpropanoylamino)-5-(trifluoromethyl)pyridin-2-yl]methyl 2-(3-chloro-4-sulfamoylbenzoyl)-1,3,4,6-tetrahydropyrrolo[3,4-c]pyrrole-5-carboxylate]: the values for the IC50 (at human ATX (setting [2]); in test [1]) were 5 nM and 10 nM, respectively.

Take `CC(C)(C)C(=O)Nc1cc(C(F)(F)F)cnc1COC(=O)N1CC2=C(C1)CN(C(=O)c1ccc(S(N)(=O)=O)c(F)c1)C2` [Example 1.03, [3-(2,2-dimethylpropanoylamino)-5-(trifluoromethyl)pyridin-2-yl]methyl 2-(3-fluoro-4-sulfamoylbenzoyl)-1,3,4,6-tetrahydropyrrolo[3,4-c]pyrrole-5-carboxylate]: the figures for the half-inhibitory concentration (IC50) (at human ATX (setting [2]); in test [1]) were 5 nM and 9 nM, respectively.

For `CC(C)(C)C(=O)Nc1cc(C(F)(F)F)cnc1COC(=O)N1CC2=C(C1)CN(C(=O)c1ccc(S(N)(=O)=O)cc1F)C2` [Example 1.04, [3-(2,2-dimethylpropanoylamino)-5-(trifluoromethyl)pyridin-2-yl]methyl 2-(2-fluoro-4-sulfamoylbenzoyl)-1,3,4,6-tetrahydropyrrolo[3,4-c]pyrrole-5-carboxylate], the IC50 on human ATX (setting [2]) worked out at 4 nM; in test [1] it was 5 nM.

Turning to `CC(C)(C)C(=O)Nc1cc(C#N)cnc1COC(=O)N1CC2=C(C1)CN(C(=O)c1ccc(S(N)(=O)=O)cc1F)C2` [Example 1.24, [5-cyano-3-(2,2-dimethylpropanoylamino)pyridin-2-yl]methyl 2-(2-fluoro-4-sulfamoylbenzoyl)-1,3,4,6-tetrahydropyrrolo[3,4-c]pyrrole-5-carboxylate], the half-maximal inhibitory concentration (IC50) in test [1] worked out at 7 nM.

For `CC(C)(C)C(=O)Nc1cc(C#N)cnc1COC(=O)N1CC2=C(C1)CN(C(=O)c1c(F)cc(S(N)(=O)=O)cc1F)C2` [Example 1.25, [5-cyano-3-(2,2-dimethylpropanoylamino)pyridin-2-yl]methyl 2-(2,6-difluoro-4-sulfamoylbenzoyl)-1,3,4,6-tetrahydropyrrolo[3,4-c]pyrrole-5-carboxylate], in test [1], the IC50 is 8 nM.

Take `CC(C)(C)C(=O)Nc1cc(C#N)cnc1COC(=O)N1CC2=C(C1)CN(C(=O)c1ccc(S(N)(=O)=O)c(F)c1F)C2` [Example 1.26, [5-cyano-3-(2,2-dimethylpropanoylamino)pyridin-2-yl]methyl 2-(2,3-difluoro-4-sulfamoylbenzoyl)-1,3,4,6-tetrahydropyrrolo[3,4-c]pyrrole-5-carboxylate]: the IC50 at human ATX was 3 nM.

For `CC(C)(C)C(=O)Nc1cc(C(F)(F)F)cnc1COC(=O)N1CCC2=C(CCN(C(=O)c3ccc(S(N)(=O)=O)cc3F)C2)C1` [Example 1.28, [3-(2,2-dimethylpropanoylamino)-5-(trifluoromethyl)pyridin-2-yl]methyl 6-(2-fluoro-4-sulfamoylbenzoyl)-1,3,4,5,7,8-hexahydro-2,6-naphthyridine-2-carboxylate], the IC50 at human ATX (setting [2]) came out at 1 nM.
